Patent US7183375B2, “Inhibitors for continuous activation for calcineurin” (Agencey of Industrial Science and Technology, priority 2002, dated 2007)
Where a SMILES comes first, the peptide text is derived from it. Where no end group is shown, it is not given here.

How the values were obtained:
neuronal cells = experiment: Neuronal cell death induced by glutamic acid (TUNEL staining, TUNEL positive cell count); assay type: cell-based, Wister rat; details: peptides of SEQ Nos. 5 and 6 1 μM, FK506 1 μM, ALLM 25 μM; glutamic acid 500 μM; TUNEL at 3, 6, 12 or 24 hours; FIG. 2
Description: (§1) After the brain hippocampus from 18 days embryo of Wister rat had been removed, it was treated with PBS containing 0.05% trypsin for 15 minutes at 37° C. After the neuronal cells were suspended with a glass pipet, 1×10^6 cells were cultured in a 3.5 cm diameter culture dish which was previously coated with poly-D-lysine. As the medium, 3 ml Neuro Basal medium (available from Invitrogen, Inc.) complemented with B27 supplement (0.03 ml; available from Invitrogen, Inc.), penicillin (100 units/ml in the final concentration; available from Invitrogen, Inc.) and streptomycin (100 μg/ml in the final concentration; available from Invitrogen, Inc.) was used and the cultivation was carried out in carbon dioxide incubator (5% CO2, 37° C.).
The neuronal cells were cultured in the same manner as in Example 1, and then the above-mentioned peptides of SEQ Nos. 5 and 6 were added in the final concentration of 1 μM in the same manner as in Example 1. The calcineurin inhibitor, FK506 (available from Fujisawa pharmaceutical Co., Ltd.; the final concentration of 1 μM) or calpain inhibitor, ALLM (available from Merck & Co., Inc.; the final concentration of 25 μM) was added as a control. After 2 hours incubation with each reagent, glutamic acid was added in the final concentration of 500 μM, followed by 15 minutes incubation. […] The TUNEL positive cell was counted.

neuronal cell death = details: reported in literature (Morioka 1999; Springer 2000); cited from earlier work
[1] = test system: calcineurin subunit A (CaNA); experiment: Cleavage of CaNA in cultured neuronal cells after glutamic acid addition (Western blotting); assay type: cell-based, Wister rat; details: peptides of SEQ Nos. 5 and 6 at 1 μM; glutamic acid 500 μM, 15 minutes; cells collected at 3 hours and 24 hours; FIG. 1
Description: as §1
The peptides of above-mentioned SEQ Nos. 5 and 6 were added in the culture solution with the final concentration of 1 μM 10 days after beginning of culture, and it was incubated in carbon dioxide incubator (5% CO2, 37° C.). Three hours after the addition, glutamic acid was added in the final concentration of 500 μM, and it was incubated for 15 minutes. The culture solution was then exchanged, and it was further cultured. The cells were collected at 3 hours and 24 hours after glutamic acid was added, were disrupted by ultrasonic wave in 1% SDS solution, and the SDS-PAGE buffer was added thereto. […]

Row | Compound | neuronal cell death induced by glutamic acid (neuronal cells) | neuronal cell death (neuronal cell death) | cleavage of calcineurin caused by the addition of glutamic acid [1]
1 | CSCC[C@@H](C=O)NC(=O)[C@H](CC(C)C)NC(=O)[C@H](CC(C)C)NC(C)=O [ALLM] (Ac-Leu-Leu-Met-aldehyde) | same degree |  | 
2 | cyclosporin A |  | suppresses neuronal cell death | 
3 | cleavage inhibiting peptide: peptides of SEQ Nos. 5 and 6 added together to the culture solution, 1 μM final concentration (chain 1 RRRRRRRRRRFDGATAAARKEVIRNK; chain 2 RRRRRRRRRRREESESVLTLKGLTPTG; also: mixture of two peptides added together) | suppressive effect |  | inhibited
